Experimental data: US20260022114A1, “N-(5-SUBSTITUTED-[(1,3,4-THIADIAZOLYL) OR (1,3-THIAZOLYL)](SUBSTITUTED)CARBOXAMIDE COMPOUNDS, PHARMACEUTICAL COMPOSITIONS, AND METHODS OF PREPARING THE AMIDE COMPOUNDS AND OF THEIR USE” (Repare Therapeutics Inc., priority 2022, published 2026)

target: PolQ ATPase enzyme (1-894) (Homo sapiens (Human), UniProt O75417); experiment: Polθ ATPase enzymatic assay (0.5 nM enzyme concentration), ADP-Glo; type: biochemical; details: 0.5 nM PolQ ATPase enzyme (1-894); average IC50
Sequence (O75417 1-894): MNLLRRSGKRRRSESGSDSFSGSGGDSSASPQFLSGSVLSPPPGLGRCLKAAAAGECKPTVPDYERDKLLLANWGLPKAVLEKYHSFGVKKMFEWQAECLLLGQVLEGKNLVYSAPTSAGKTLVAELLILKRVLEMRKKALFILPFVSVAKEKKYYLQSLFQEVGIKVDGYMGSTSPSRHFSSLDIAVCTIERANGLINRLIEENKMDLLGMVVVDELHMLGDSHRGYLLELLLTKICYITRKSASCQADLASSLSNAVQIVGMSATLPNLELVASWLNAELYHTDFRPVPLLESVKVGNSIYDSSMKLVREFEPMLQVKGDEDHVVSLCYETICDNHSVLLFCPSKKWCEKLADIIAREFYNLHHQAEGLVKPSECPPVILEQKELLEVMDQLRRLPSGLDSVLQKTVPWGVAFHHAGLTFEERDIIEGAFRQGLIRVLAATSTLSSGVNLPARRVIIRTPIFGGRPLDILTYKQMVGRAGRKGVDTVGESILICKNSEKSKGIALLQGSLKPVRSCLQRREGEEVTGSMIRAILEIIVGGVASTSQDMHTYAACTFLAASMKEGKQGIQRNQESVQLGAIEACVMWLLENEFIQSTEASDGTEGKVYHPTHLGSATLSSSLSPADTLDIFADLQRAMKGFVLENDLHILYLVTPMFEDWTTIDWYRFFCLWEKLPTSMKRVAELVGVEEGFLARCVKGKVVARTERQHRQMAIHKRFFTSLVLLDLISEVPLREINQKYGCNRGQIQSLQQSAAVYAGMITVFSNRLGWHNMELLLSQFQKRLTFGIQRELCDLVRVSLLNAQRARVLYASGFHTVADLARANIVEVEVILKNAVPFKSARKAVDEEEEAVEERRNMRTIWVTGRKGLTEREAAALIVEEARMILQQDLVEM
Procedure: PolQ ATPase enzyme (1-894) at 0.5 nM is incubated with a 10-point concentration response of inhibitors for 15 min at rt in the following buffer: 50 mM Tris Cl pH 7.5, 10% glycerol, 5 mM DTT, 10 mM MgCl2, 0.1 mg/ml BSA. Following pre-incubation with inhibitors, DNA (Fork C) at 20 nM and ATP at 100 μM are added to start the reaction. Enzymatic reaction proceeds at rt for 180 min. ATP consumption is measured using the ADP-Glo assay from Promega. Luminescence is read on the Envision and IC50 are determined using the variable slope 4-parameters equation.
Oligos are annealed by heating at 95° C. for 5 min in the following buffer (10 mM Tris-HCl PH7.5, 50 mM NaCl, 1 mM EDTA) and cooled to rt. […]

IC50 [nM]	Structure (SMILES)
< 0.25	COc1cnc(C(F)F)cc1-c1cc(-n2ccc(C3CCOCC3)cc2=O)ncc1C(=O)Nc1nnc(C#CC2CC2)s1 [Compound 506]
1.3	COc1cnc(C(F)F)cc1-c1cc(-n2ccc(C)cc2=O)ncc1C(=O)Nc1nnc([C@H]2C[C@@H]2c2ccnn2C)s1 (racemic) [Compound 582]
< 0.25	COc1cnc(C(F)F)cc1-c1cc(N2CC3CC3CC2=O)ncc1C(=O)Nc1nnc(C#CC2CC2)s1 (racemic) [Compound 388]
1.15	COc1cnc(C(F)F)cc1-c1cc(C#CC(C)(C)N2CC(C)(C)C2)ncc1C(=O)Nc1nnc(C#CC2CC2)s1 [Compound 560]
11	COCc1nnc(NC(=O)c2cnc(-n3ccc(C)cc3=O)cc2-c2cc(C(F)F)ncc2OC)s1 [Compound 602]
0.47	COc1cnc(C(F)F)cc1-c1cc(-n2cc(C)ccc2=O)ncc1C(=O)Nc1nnc([C@H]2C[C@@H]2C(F)(F)F)s1 [Compound 551]
7.4	Cn1ccc(C2C=C(c3cc(C(F)(F)F)ncc3Cl)C(C(=O)Nc3ncc(C#CC4CC4)s3)=CC2=O)n1 (stereo not drawn) [Compound 479]
0.32	C#C[C@H]1C[C@@H]1c1nnc(NC(=O)c2cnc(-n3cccc(C(F)(F)F)c3=O)cc2-c2cc(C(F)F)ncc2OC)s1 [Compound 575]
33.3	COc1cnc(C(F)F)cc1-c1cc(-n2ccc(C)cc2=O)ncc1C(=O)Nc1nnc([C@H]2C[C@@H]2C#N)s1 (racemic) [Compound 539]
1.7	COc1cnc(C(F)F)cc1-c1cc(-n2ccc(B(O)O)cc2=O)ncc1C(=O)Nc1nnc(C#CC2CC2)s1 [Compound 509]
< 0.25	Cc1nnc(Cn2cc(-c3cc(C(F)F)ccc3C)c(C(=O)Nc3ncc(C#CC4CC4)s3)cc2=O)o1 [Compound 116]
0.45	COc1cnc(C(F)F)cc1-c1cc(C#CCN2CC[S+]([O-])CC2)ncc1C(=O)Nc1nnc(C#CC2CC2)s1 [Compound 596]
15	COc1cnc(C(F)F)cc1-c1cc(N2CCCCS2(=O)=O)ncc1C(=O)Nc1nnc(C#CC2CC2)s1 [Compound 521]
< 0.25	[2H]C([2H])([2H])N1CCN(c2cc(-c3cc(C(F)F)ncc3OC)c(C(=O)Nc3nnc(C#CC4CC4)s3)cn2)C(=O)C12CC2 [Compound 503]
0.35	C#C[C@H]1CC1c1nnc(NC(=O)c2cnc(-n3ncc(C)cc3=O)cc2-c2cc(C(F)F)ncc2OC)s1 (single isomer, unassigned) [Compound 632]
51	COc1cnc(C(F)F)cc1-c1cc(C=C=CN2CCOCC2=O)ncc1C(=O)Nc1nnc(C#CC2CC2)s1 [Compound 543]
1.1	COc1cnc(C(F)F)cc1-c1cc(-n2ccc(OC3CCN(C)C3)cc2=O)ncc1C(=O)Nc1ncc(C#CC2CC2)s1 (racemic) [Compound 615]
< 0.25	COc1cnc(C(F)F)cc1-c1cc(-n2ccc(CO)cc2=O)ncc1C(=O)Nc1nnc(C#CC2CC2)s1 [Compound 490]
1.1	COc1cnc(C(F)F)cc1-c1cc(-n2ccc(C)cc2=O)ncc1C(=O)Nc1nnc([C@H]2C[C@@H]2C)s1 [Compound 545]
2	COc1cnc(C(F)F)cc1-c1cc(-n2ccc(C)cc2=O)ncc1C(=O)Nc1nnc(C2CC3(CCC3)C2)s1 [Compound 566]

IC50 [nM]	Structure (SMILES)
45	COc1cnc(C(F)F)cc1-c1cc(-n2ccc(C)cc2=O)ncc1C(=O)Nc1nnc(CC(C)(C)OC)s1 [Compound 568]
< 0.25	CC#C[C@H]1CC1c1nnc(NC(=O)c2cnc(-n3ccc(C)cc3=O)cc2-c2cc(C(F)F)ncc2OC)s1 (mixture of isomers) [Compound 637]
< 0.25	COc1cnc(C(F)F)cc1-c1cc(C#CCN2CCNC2=O)ncc1C(=O)Nc1nnc(C#CC2CC2)s1 [Compound 559]
0.7	COc1cnc(C(F)F)cc1-c1cc(N2CCC(C)CCC2=O)ncc1C(=O)Nc1nnc(C#CC2CC2)s1 (racemic) [Compound 485]
0.33	COc1cnc(C(F)F)cc1-c1cc(-n2ccc(C)cc2=O)ncc1C(=O)Nc1nnc([C@H]2C[C@@H]2c2cncs2)s1 (racemic) [Compound 579]
0.29	COc1cnc(C(F)F)cc1-c1cc(C#CCN2CCOCC2=O)ncc1C(=O)Nc1nnc(C#CC2CC2)s1 [Compound 542]
< 0.25	COc1cnc(C(F)F)cc1-c1cc(-n2cccc(C(C)=O)c2=O)ncc1C(=O)Nc1nnc(C#CC2CC2)s1 [Compound 491]
3	C#C[C@H]1C[C@@H](c2nnc(NC(=O)c3cnc(-n4ccc(C)cc4=O)cc3-c3cc(C(F)F)ncc3OC)s2)C1 [Compound 594]
5.8	C#C[C@H]1CC1c1nnc(NC(=O)c2cnc(CC#N)cc2-c2cc(C(F)F)ncc2OC)s1 (stereo partly drawn) [Compound 190]
0.59	COc1cnc(C(F)F)cc1-c1cc(C#CCN2C[C@@H](C)O[C@@H](C)C2)ncc1C(=O)Nc1nnc(C#CC2CC2)s1 [Compound 529]
0.87	COc1cnc(C(F)F)cc1-c1c(C(=O)Nc2nnc(C#CC3CC3)s2)ccc(-c2ccn(C)n2)c1F [Compound 385]
< 0.25	C#C[C@H]1C[C@@H]1c1nnc(NC(=O)c2cnc(Oc3cc(Cl)ccn3)cc2-c2cc(C(F)F)ncc2OC)s1 [Compound 577]
0.33	COc1cnc(C(F)F)cc1-c1cc(-n2ccc(C(=O)O)cc2=O)ncc1C(=O)Nc1nnc(C#CC2CC2)s1 [Compound 495]
4.6	C#C[C@H]1CC1c1nnc(NC(=O)c2ccc(-c3nnc(C)o3)cc2-c2cc(C(F)F)ncc2OC)s1 (mixture of isomers) [Compound 373]
0.76	COc1ccc(C(F)(F)F)cc1-c1cnccc1C(=O)Nc1nnc(C2C[C@H]2c2ccc(C#N)cc2)s1 (stereo partly drawn) [Compound 30]
0.95	COc1cnc(C(F)F)cc1-c1cc(-n2ccc(C)cc2=O)ncc1C(=O)Nc1nnc(C2C[C@@H]2C2CCCO2)s1 (mixture of isomers) [Compound 633]
1.1	C#C[C@H]1C[C@@H]1c1nnc(NC(=O)c2cnc(N3CCN(C(=O)OCC)C4(CC4)C3=O)cc2-c2cc(C(F)F)ncc2OC)s1 [Compound 565]
0.35	COc1cnc(C(F)F)cc1-c1cc(-n2ccc(N3CC4(COC4)C3)cc2=O)ncc1C(=O)Nc1nnc(C#CC2CC2)s1 [Compound 613]
< 0.25	COc1cnc(C(F)F)cc1-c1cc(C#CCN(C)C)ncc1C(=O)Nc1nnc(C#CC2CC2)s1 [Compound 628]
< 0.25	COc1cnc(C(F)F)cc1-c1cc(-n2cccc(C)c2=O)ncc1C(=O)Nc1nnc(C#CC2CCOCC2)s1 [Compound 494]

IC50 [nM]	Structure (SMILES)
< 0.25	COc1cnc(C(F)F)cc1-c1cc(C#CCC2CCNC2=O)ncc1C(=O)Nc1nnc(C#CC2CC2)s1 (racemic) [Compound 570]
0.79	C#C[C@H]1C[C@@H]1c1nnc(NC(=O)c2cnc(-n3ccc(N4CCN(C)CC4)cc3=O)cc2-c2cc(C(F)F)ncc2OC)s1 [Compound 548]
1.5	COc1cnc(C(F)F)cc1-c1cc(C#CC(C)(C)N2CCN(C)CC2)ncc1C(=O)Nc1nnc(C#CC2CC2)s1 [Compound 549]
< 0.25	C#C[C@H]1C[C@@H]1c1nnc(NC(=O)c2cnc(-n3cccc(C)c3=O)cc2-c2cc(C(F)F)ncc2OC)s1 [Compound 547]
1.2	COc1cnc(C(F)F)cc1-c1cc(-n2ccc(OC3CCN(C)CC3)cc2=O)ncc1C(=O)Nc1nnc(C#CC2CC2)s1 [Compound 611]
1.4	COc1cnc(C(F)F)cc1-c1cc(C2C[C@@H]2C(=O)N(C)C)ccc1C(=O)Nc1nnc(C#CC2CC2)s1 (mixture of isomers) [Compound 362]
0.99	COc1cnc(C(F)F)cc1-c1cc(-n2ccc(C)cc2=O)ncc1C(=O)Nc1nnc([C@H]2C[C@@H]2C2CCOCC2)s1 (racemic) [Compound 581]
0.25	CNC(=O)Cn1cc(-c2cc(C(F)(F)F)ccc2OC)c(C(=O)Nc2nnc(C3C[C@H]3c3ccc(C#N)cc3)s2)cc1=O (stereo partly drawn) [Compound 92]
6.3	COc1cnc(C(F)F)cc1-c1cc(-n2ccc(C)cc2=O)ncc1C(=O)Nc1nnc(COc2cnn(C)c2)s1 [Compound 621]
3.1	COc1cnc(C(F)F)cc1-c1cc(C#CCN2CCOCC2)ncc1C(=O)Nc1nnc([C@H]2C[C@@H]2C(F)(F)F)s1 [Compound 609]
< 0.25	COc1cnc(C(F)F)cc1-c1cc(-n2ccc(C)cc2=O)ncc1C(=O)Nc1nnc(C#CC2CC23CC3)s1 (racemic) [Compound 557]
0.51	COc1cnc(C(F)F)cc1-c1cc(-n2ccc(C)cc2=O)ncc1C(=O)Nc1nnc([C@H]2C[C@@H]2c2cnn(C)c2)s1 (racemic) [Compound 584]
21	COc1cnc(C(F)F)cc1-c1cc(C#CCn2cc(C)cn2)ncc1C(=O)Nc1nnc(C#CC2CC2)s1 [Compound 599]
1.5	COc1cnc(C(F)F)cc1-c1cc(Cn2ccccc2=O)ncc1C(=O)Nc1nnc(C#CC2CC2)s1 [Compound 507]
2.9	C#C[C@H]1C[C@H](c2nnc(NC(=O)c3cnc(-n4ccc(C)cc4=O)cc3-c3cc(C(F)F)ncc3OC)s2)C1 [Compound 595]
25	COc1cnc(C(F)F)cc1-c1cc(-n2ccc(C)cc2=O)ncc1C(=O)Nc1nnc(COC(C)(C)C)s1 [Compound 578]
0.25	COc1cnc(C(F)F)cc1-c1cc(-n2ccc(C)cc2=O)ncc1C(=O)Nc1nnc(C2C[C@@H]2c2cscn2)s1 (mixture of isomers) [Compound 635]
0.54	COc1cnc(C(F)F)cc1-c1cc(C#CCN2CCOCC2)ncc1C(=O)Nc1nnc([C@H]2C[C@@H]2c2cncs2)s1 (racemic) [Compound 640]
40	COc1cnc(C(F)F)cc1-c1cc(-n2ccc(C)cc2=O)ncc1C(=O)Nc1nnc(CC(=O)N(C)C)s1 [Compound 603]

Structure (SMILES)	IC50 [nM]
COc1cnc(C(F)F)cc1-c1cc(-n2cc(C)c(C)cc2=O)ncc1C(=O)Nc1nnc(C#CC2CC2)s1 [Compound 476]	< 0.25
